According to PMC6594753, “Cystic fibrosis drug ivacaftor stimulates CFTR channels at picomolar concentrations” (eLife, 2019):
Where “and” joins values, the source holds several entries; their conditions need not be identical. Equal entries are not always repeated. Where two headings read alike, the source gives them in different places.

Legend:
[1] = Octanol/water distribution coefficient from solubilities; format: physicochemical; conditions: pH=7.1
[2] = molecular target: T1, G551D CFTR (Homo sapiens, UniProt P13569, G551D); assay: Quasi-macroscopic current recording in excised inside-out patches from Xenopus laevis oocytes; format: biochemical
T1 construct: expressed in transfected cells; host or cells: Xenopus laevis oocytes injected with cRNA transcribed from mutated pGEMHE-CFTR
T1 sequence (P13569 whole entry G551D): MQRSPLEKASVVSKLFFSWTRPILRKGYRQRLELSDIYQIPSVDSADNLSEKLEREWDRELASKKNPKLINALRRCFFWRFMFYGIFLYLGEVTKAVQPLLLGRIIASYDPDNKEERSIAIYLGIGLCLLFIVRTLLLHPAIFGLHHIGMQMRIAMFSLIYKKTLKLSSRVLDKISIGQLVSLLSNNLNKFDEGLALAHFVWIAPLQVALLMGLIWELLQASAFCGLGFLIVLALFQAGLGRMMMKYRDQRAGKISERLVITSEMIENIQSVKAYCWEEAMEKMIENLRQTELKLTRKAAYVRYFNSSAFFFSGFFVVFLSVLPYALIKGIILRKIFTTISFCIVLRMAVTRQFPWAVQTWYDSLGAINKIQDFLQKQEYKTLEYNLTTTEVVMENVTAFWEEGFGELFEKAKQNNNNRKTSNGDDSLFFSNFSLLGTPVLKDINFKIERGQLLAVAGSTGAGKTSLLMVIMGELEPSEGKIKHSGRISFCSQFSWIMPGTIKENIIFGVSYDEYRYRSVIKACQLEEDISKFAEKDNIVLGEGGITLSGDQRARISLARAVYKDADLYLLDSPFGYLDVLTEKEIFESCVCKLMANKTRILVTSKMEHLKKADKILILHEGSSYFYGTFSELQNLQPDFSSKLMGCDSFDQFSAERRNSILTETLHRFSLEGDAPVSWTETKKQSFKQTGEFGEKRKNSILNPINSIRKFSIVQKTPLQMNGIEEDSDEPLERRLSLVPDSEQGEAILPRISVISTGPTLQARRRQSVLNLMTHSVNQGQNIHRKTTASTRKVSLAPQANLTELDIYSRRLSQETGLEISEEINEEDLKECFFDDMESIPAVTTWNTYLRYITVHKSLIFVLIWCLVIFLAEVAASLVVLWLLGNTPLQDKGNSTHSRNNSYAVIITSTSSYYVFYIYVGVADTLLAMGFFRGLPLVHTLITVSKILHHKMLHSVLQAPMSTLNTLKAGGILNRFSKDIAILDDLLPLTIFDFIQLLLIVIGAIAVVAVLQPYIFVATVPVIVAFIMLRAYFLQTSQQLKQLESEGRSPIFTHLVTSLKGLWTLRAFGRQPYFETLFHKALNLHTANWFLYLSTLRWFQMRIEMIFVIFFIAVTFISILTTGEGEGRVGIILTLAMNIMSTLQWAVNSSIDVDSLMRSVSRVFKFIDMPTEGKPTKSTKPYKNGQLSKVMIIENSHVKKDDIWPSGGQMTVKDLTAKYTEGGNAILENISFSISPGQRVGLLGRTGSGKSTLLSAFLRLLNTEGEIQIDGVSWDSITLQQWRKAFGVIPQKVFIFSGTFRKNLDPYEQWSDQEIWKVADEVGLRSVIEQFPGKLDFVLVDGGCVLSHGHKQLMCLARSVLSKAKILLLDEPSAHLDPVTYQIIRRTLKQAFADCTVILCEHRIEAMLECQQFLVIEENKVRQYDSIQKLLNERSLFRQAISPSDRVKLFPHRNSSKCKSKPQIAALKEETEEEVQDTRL
Source text: (§1) We reasoned that this circumstance might explain some of the puzzling features of the drug, such as CFTR channel inactivation observed in some cases ([Cholon et al., 2014]), as well as apparent irreversibility of drug effects ([Jih and Hwang, 2013]; [Lin et al., 2016]; [Yeh et al., 2015]; [Yeh et al., 2017]; [Wang et al., 2014]; [Wang et al., 2018]). To investigate stability and reversibility of Vx-770 effects in a concentration range that can be achieved in the human body during oral drug administration, we tested the effects of our 1x saturated Vx-770 solution and its dilutions in inside-out patches excised from Xenopus laevis oocytes expressing WT or mutant human CFTR channels.
(§2) The G551D and ΔF508 mutations were introduced into pGEMHE-CFTR using the QuikChange Kit (Agilent, Santa Clara, CA, USA), and confirmed by automated sequencing; cDNA was purified (HiSpeed Plasmid Midi Kit, Qiagen), transcribed in vitro (mMessage T7 Kit, ThermoFisher Scientific, Waltham, MA USA) and cRNA stored at −80°C.
(§3) Patch pipette solution contained (in mM): 136 NMDG-Cl, 2 MgCl2, 5 HEPES, pH = 7.4 with NMDG. Bath solution contained (in mM): 134 NMDG-Cl, 2 MgCl2, 5 HEPES, 0.5 EGTA, pH = 7.1 with NMDG. MgATP (2 mM) was added from a 400 mM aqueous stock solution (pH = 7.1 with NMDG). Before each experiment 300 nM catalytic subunit of PKA (Sigma-Aldrich Kft., Budapest, Hungary) was applied for ~1 min to phosphorylate CFTR channels. Vx-770 (Selleck Chemicals) was diluted into the bath solution either from a ‘1x saturated’ aqueous stock solution (see above, concentration ~62 nM), or from a commercially obtained 10 mM stock dissolved in DMSO (Selleck Chemicals). Following patch excision the patch pipette was moved into a flow chamber, and recordings were done under continuous superfusion of the cytosolic patch surface. Solution compositions were exchanged using computer-driven electronic valves (solution exchange time constant <50 ms). After each recording day perfusion tubings were extensively washed with distilled water. Although supersaturated solutions of Vx-770 were not employed here, any perfusion tubing that had ever been in contact with a given concentration of Vx-770 was subsequently used only for solutions that contained the same, or higher, concentrations of the drug. After every 5–6 experimental days the entire perfusion system was replaced. Currents were recorded at 25°C, at a membrane potential of −40 mV, digitized at 10 kHz, Gaussian-filtered at 2 kHz, and recorded to disk (Axopatch 200B, Digidata 1322A, Pclamp9 (Molecular Devices, RRID: SCR_011323)). For display purposes, currents are shown filtered at 10 Hz and sampled at 20 Hz, and expanded single-channel traces (Figure 2b, Figure 4d) are shown filtered at 50 Hz and sampled at 250 Hz.
(§4) Vx-770 was applied after currents elicited by 2 mM ATP had stabilized. To allow for full development of its potentiator effect, Vx-770 was superfused until the current reached steady state which, for low nanomolar Vx-770, required up to 5–6 min. After full stimulation, Vx-770 was washed off for at least 5 min to allow the current to decline to a post-drug steady state. Fractional current stimulation by Vx-770 (I/Icontrol) was calculated as the mean steady current in the presence of the drug, divided by the average of the pre- and post-drug mean steady currents. Dose response curves (Figure 3c,f) were least-squares fitted to the modified Hill equation I/Icontrol=(K0.5^n+(Imax/Icontrol)[Vx-770]^n)/(K0.5^n+[Vx-770]^n), with Imax/Icontrol, K0.5, and n as free parameters.
(§5) To obtain apparent deactivation rates, current decay time courses following Vx-770 removal were fitted by single exponentials using least squares, and deactivation rates defined as the inverse of the decay time constant (1/τoff; Figure 4c). To obtain apparent activation rates, current activation time courses upon Vx-770 addition were fitted to an empirical three-step kinetic scheme S1→S2→S3→S4. […]

[3] = molecular target: T2, ΔF508 CFTR (Homo sapiens, UniProt P13569, DEL508-508); assay: as above; format: biochemical
T2 construct: expressed in transfected cells; host or cells: Xenopus laevis oocytes injected with cRNA transcribed from mutated pGEMHE-CFTR
T2 sequence (P13569 with tags, fused parts or gaps DEL508-508): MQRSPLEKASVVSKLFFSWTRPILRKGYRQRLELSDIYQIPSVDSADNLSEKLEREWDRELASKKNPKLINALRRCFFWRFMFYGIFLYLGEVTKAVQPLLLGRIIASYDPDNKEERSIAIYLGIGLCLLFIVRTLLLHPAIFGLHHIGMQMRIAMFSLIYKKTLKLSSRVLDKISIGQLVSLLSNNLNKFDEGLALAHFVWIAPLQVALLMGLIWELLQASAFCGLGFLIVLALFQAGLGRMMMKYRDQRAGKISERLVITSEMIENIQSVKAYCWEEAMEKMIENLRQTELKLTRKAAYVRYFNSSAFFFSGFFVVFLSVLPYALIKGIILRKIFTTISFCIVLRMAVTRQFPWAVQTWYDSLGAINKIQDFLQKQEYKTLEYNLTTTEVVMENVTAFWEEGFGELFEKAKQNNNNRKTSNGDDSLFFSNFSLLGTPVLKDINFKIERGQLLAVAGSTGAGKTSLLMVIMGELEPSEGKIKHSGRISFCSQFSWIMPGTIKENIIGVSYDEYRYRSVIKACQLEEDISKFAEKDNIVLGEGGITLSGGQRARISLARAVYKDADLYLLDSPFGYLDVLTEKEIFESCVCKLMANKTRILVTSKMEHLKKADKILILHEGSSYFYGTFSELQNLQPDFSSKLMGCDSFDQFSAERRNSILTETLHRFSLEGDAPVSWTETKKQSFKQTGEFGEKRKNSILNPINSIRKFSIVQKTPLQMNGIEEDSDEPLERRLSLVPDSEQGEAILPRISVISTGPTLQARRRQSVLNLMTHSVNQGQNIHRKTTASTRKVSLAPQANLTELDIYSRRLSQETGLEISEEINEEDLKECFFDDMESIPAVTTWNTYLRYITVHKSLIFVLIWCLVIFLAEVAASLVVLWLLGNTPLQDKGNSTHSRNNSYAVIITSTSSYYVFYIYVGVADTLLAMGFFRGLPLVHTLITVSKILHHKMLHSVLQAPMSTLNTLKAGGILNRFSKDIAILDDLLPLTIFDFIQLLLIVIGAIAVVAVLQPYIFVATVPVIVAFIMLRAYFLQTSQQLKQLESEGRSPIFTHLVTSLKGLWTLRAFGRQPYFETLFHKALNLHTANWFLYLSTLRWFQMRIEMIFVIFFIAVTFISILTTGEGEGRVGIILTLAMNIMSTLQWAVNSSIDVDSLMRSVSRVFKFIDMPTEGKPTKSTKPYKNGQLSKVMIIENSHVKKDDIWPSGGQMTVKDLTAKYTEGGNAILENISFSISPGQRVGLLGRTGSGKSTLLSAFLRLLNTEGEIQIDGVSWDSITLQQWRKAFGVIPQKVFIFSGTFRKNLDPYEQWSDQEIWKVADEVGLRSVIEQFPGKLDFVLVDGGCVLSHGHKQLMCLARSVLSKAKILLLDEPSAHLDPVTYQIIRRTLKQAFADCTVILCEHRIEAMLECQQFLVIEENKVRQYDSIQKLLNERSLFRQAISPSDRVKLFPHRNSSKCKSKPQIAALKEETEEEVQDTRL
Source text: as §1, §2, §3, §4, §5

[4] = test system: WT CFTR; conditions: cited from earlier work
[5] = parameters: method as in FDA report by Vertex Pharmaceuticals Incorporated; conditions: patients, oral, ref FDA report by Vertex Pharmaceuticals Incorporated, cited from earlier work
[6] = diluted from 1x saturated aqueous stock, 2 mM ATP, read-out: K0.5 for current stimulation

logD ([1]; octanol/water): 4.8
octanol/water distribution coefficient Doct/wat [1]: 62580 and ~ 60000
Hill coefficient [2]: 1.22±0.10
potency higher than previously reported [2]: ~ 200 fold
reversibility of current stimulation [2]: fully reversible
time constant of reversal [2]: ~ 2 min
EC50 [2, 6]: 1.42 nM and ~1.5 nM
Hill coefficient [3]: 1.12±0.07
reversibility of current stimulation [3]: fully reversible
time constant of reversal [3]: ~ 2 min
EC50 [3, 6]: 1.53 nM and ~1.5 nM
SMILES: CC(C)(C)c1cc(C(C)(C)C)c(NC(=O)c2c[nH]c3ccccc3c2=O)cc1O [Vx-770, ivacaftor]
maximal stimulation of WT CFTR channels ([4]; lower end of reported range, ref Cui and McCarty, 2015): ~ 1.1 fold
reversibility of CFTR channel stimulation in cell-free patches ([4]; ref Jih and Hwang, 2013, Lin et al., 2016, Yeh et al., 2015, 2017, Wang et al., 2014, 2018): irreversible
EC50 ([4]; ref Van Goor et al., 2014, Langron et al., 2018, read-out: previously reported K0.5 for stimulation of WT CFTR): ~300 nM
maximal stimulation of WT CFTR channels ([4]; upper end of reported range, ref Wang et al., 2018): ~ 3 fold
peak plasma concentration ([5]; twice daily 150 mg (therapeutic)): ~ 4 μM
peak plasma concentration ([5]; twice daily 450 mg (supratherapeutic)): > 10 µM
